Structures are written as SMILES. “And” between values parts separate entries of the source, which are not always exact repeats. Equal entries are not always repeated.

Results on ten compounds are retold here after PMC12624434 (ACS Pharmacology & Translational Science, 2025).

This assay deals with T1, NRP1 b1 domain (Homo sapiens, UniProt O14786).
T1 construct: with the purified recombinant NRP1 b1 domain immobilized on the chip; inferred from Ni-NTA capture), TEV-cleavable (cleaved yes); made in house; host or cells: E. coli Rosetta (DE3)
T1 sequence (O14786 275-424 limits assumed): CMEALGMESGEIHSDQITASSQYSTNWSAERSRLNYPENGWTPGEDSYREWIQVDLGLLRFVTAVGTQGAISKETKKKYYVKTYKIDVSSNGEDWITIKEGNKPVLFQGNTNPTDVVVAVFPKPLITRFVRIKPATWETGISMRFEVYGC
The assay can be described thus: SPR binding to immobilized NRP1 b1 domain (Biacore 4000, CM5 chip). The settings on record: steady-state binding, 25 °C; mean ± SD; read-out: SPR NRP1 b1 domain equilibrium KD. The protocol: Surface Plasmon Resonance experiments were performed using a Biacore 4000 instrument at a constant temperature of 25 °C. Sensor chips, buffer stock solutions, and immobilization reagents were purchased from GE Healthcare. Recombinant human NRP1-b1 was produced in-house and recombinant human NRP1-ECD (extracellular domain) was purchased from ACRO (catalogue number NR1-H5A228). All other reagents were obtained from Sigma.
PBS containing 0.05% surfactant P20 was used as the running buffer during immobilization. NRP1-b1 was immobilized onto a CM5 chip using random amine coupling. The four flow cells were treated in the same way to optimize throughput. In summary, spots 1 and 2 were activated with the coupling reagents EDC and NHS for 10 min. NRP1-b1 at a concentration of 20 μg/mL in 10 mM sodium acetate pH 5 was injected onto the surface for 10 and 5 min in spots 1 and 2, respectively to generate surfaces with high and low density. […] The unmodified spot 3 was used as a reference.
PBS buffer containing 0.05% surfactant P20 and 3% DMSO was used as the running buffer and sample dilution buffer throughout these experiments. Dose–responses were obtained using a 2-fold sample dilution from 16 μM to 31 nM, using an injection time of 60 s. Surface regeneration between injections was not necessary, but a wash step with 1 M NaCl was included after injection of the highest concentration sample for each compound.
Binding curves were corrected for variations in DMSO concentration and normalized by molecular weight. Binding results to high and low-density surfaces were processed independently and the average ± SD is presented. K Ds reported are derived from steady-state binding responses and therefore correspond to the equilibrium binding affinity of the compounds.
The term Kd denotes the free concentration of one partner at which half of the binding sites on the other are occupied at equilibrium, for simple one-to-one binding. Take `Cn1cncc1CNCc1cccc(-c2cc(S(=O)(=O)Nc3ccsc3C(=O)N[C@@H](CCCNC(=N)N)C(=O)O)c3ncccc3c2)c1` [Compound 12a, (2S)-5-Guanidino-2-[[3-[[6-[3-[[(3-methylimidazol-4-yl)-methylamino]-methyl]-phenyl]-8-quinolyl]-sulfonylamino]-thiophene-2-carbonyl]-amino]-pentanoic Acid, Formic Acid]: the Kd was 1440 ± 130 nM.
The value for `N=C(N)NCCC[C@H](NC(=O)c1sccc1NS(=O)(=O)c1cc(-c2csc(N)n2)cc2cccnc12)C(=O)O` [Compound 12q, (S)-2-({3-[6-(2-Amino-thiazol-4-yl)-quinoline-8-sulfonylamino]-thiophene-2-carbonyl}-amino)-5-guanidino-pentanoic Acid] was 510 nM and 2540 nM; that for `Cn1cncc1CNCc1ccc(-c2cc(S(=O)(=O)Nc3ccsc3C(=O)N[C@@H](CCCNC(=N)N)C(=O)O)c3ncccc3c2)cc1` [Compound 12c, (2S)-5-Guanidino-2-[[3-[[6-[4-[[(3-methylimidazol-4-yl)-methylamino]-methyl]-phenyl]-8-quinolyl]-sulfonylamino]-thiophene-2-carbonyl]-amino]-pentanoic Acid, Formic Acid] was 800 ± 140 nM; that for `CNCc1ccc(-c2cc(S(=O)(=O)Nc3ccsc3C(=O)N[C@@H](CCCNC(=N)N)C(=O)O)c3ncccc3c2)cc1` [Compound 12b, (2S)-5-Guanidino-2-[[3-[[6-[4-(methylaminomethyl)-phenyl]-8-quinolyl]-sulfonylamino]-thiophene-2-carbonyl]-amino]-pentanoic Acid, Formic Acid] was 2270 ± 70 nM.
With `N=C(N)NCCC[C@H](NC(=O)c1sccc1NS(=O)(=O)c1cc(-c2cccc(CN)c2)cc2cccnc12)C(=O)O` [Compound 12d, (2S)-2-[[3-[[6-[3-(Aminomethyl)-phenyl]-8-quinolyl]-sulfonylamino]-thiophene-2-carbonyl]-amino]-5-guanidino-pentanoic Acid, Formic Acid], the Kd was 650 ± 50 nM.
Turning to `CN(C)c1ncc(CNc2cc(S(=O)(=O)Nc3ccsc3C(=O)N[C@@H](CCCNC(=N)N)C(=O)O)c3ncccc3c2)cn1` [Compound 12m, (2S)-2-[[3-[[6-[[2-(Dimethylamino)-pyrimidin-5-yl]-methylamino]-8-quinolyl]-sulfonylamino]-thiophene-2-carbonyl]-amino]-5-guanidino-pentanoic Acid], the Kd came to 7710 ± 310 nM.
The value for `N=C(N)NCCC[C@H](NC(=O)c1sccc1NS(=O)(=O)c1cc(-c2ccnc(N)c2)cc2cccnc12)C(=O)O` [Compound 12f, (2S)-2-[[3-[[6-(2-Amino-4-pyridyl)-8-quinolyl]-sulfonylamino]-thiophene-2-carbonyl]-amino]-5-guanidino-pentanoic Acid, Formic Acid] was 1490 ± 200 nM; that for `CN(C)c1ccc(CNc2cc(S(=O)(=O)Nc3ccsc3C(=O)N[C@@H](CCCNC(=N)N)C(=O)O)c3ncccc3c2)cn1` [Compound 12n, (2S)-2-[[3-[[6-[[6-(Dimethylamino)-3-pyridyl]-methylamino]-8-quinolyl]-sulfonylamino]-thiophene-2-carbonyl]-amino]-5-guanidino-pentanoic Acid] was 820 ± 100 nM; that for `N=C(N)NCCC[C@H](NC(=O)c1sccc1NS(=O)(=O)c1cc(NCc2csc(N)n2)cc2cccnc12)C(=O)O` [Compound 12i, (2S)-2-[[3-[[6-[(2-Aminothiazol-4-yl)-methylamino]-8-quinolyl]-sulfonylamino]-thiophene-2-carbonyl]-amino]-5-guanidino-pentanoic Acid, Formic Acid] was 1040 ± 120 nM.
The value for `N=C(N)NCCC[C@H](NC(=O)c1sccc1NS(=O)(=O)c1cc(-c2ccc(CN)cc2)cc2cccnc12)C(=O)O` [Compound 12e, (2S)-2-[[3-[[6-[4-(Aminomethyl)-phenyl]-8-quinolyl]-sulfonylamino]-thiophene-2-carbonyl]-amino]-5-guanidino-pentanoic Acid, Formic Acid] was 920 ± 150 nM.
